Test results reported in US20060177430A1, “Treatment of ocular disorders with ophthalmic formulations containing methylsulfonylmethane as a transport enhancer” (Chakshu Research Inc, priority 2002, published 2006).
≈ marks a conversion by molar mass, not a printed value. Read-outs that look alike come from different tables or passages of the source. One block for each compound: values may come before it.

Tests used:
[1] = Dexamethasone solubility experiment with increasing MSM concentration (Example 16); format: physicochemical
[2] = Intestinal membrane permeation, MSM as enhancer, dexamethasone as active (Example 15); format: in vitro ADME
Description: The same study design and experimental setup was used as described in the above experiments.

[3] = Bovine cornea penetration, MSM as enhancer, methylene blue as active (Example 9); format: in vitro ADME
Description: In this example the same principal study design and protocol was used as described in Example 8. In this experiment, we selected methylene blue again as the species for which permeation enhancement was desired; however, as tissue model we selected bovine cornea. The bovine cornea was dissected from bovine eyes procured from slaughterhouses. We selected bovine cornea tissue as the test membrane because it is known to be a very difficult membrane to penetrate. Bovine cornea is about 4-6 times thicker than the human corneal membrane.

[4] = Methylene blue permeation through MSM pre-treated porcine intestinal membrane (Example 17); format: in vitro ADME
Method: This experiment was designed to investigate if there is a long-lasting enhancement effect of MSM, i.e., if there is a long-lasting disruption of membrane permeability after the formula was removed or washed-out after application.
Methylene blue was the active. The tissue model was porcine intestinal membrane, which was pre-treated. In this experiment all membranes were soaked for 24 hours in a MSM containing pre-treatment solution. […] After the 24-hour soaking period, “Test A” membrane was thoroughly washed, while “Test B” membrane was only briefly rinsed. Those membrane specimens were then mounted as described earlier on methylene blue containing glass vials, which were then immersed as described earlier into a larger glass vial containing receptor medium containing. Only the MSM-enhanced donor solution contained, besides methylene blue, also MSM for enhancement purposes. • Control: No MSM in 24-hour pre-treatment, no MSM enhancer in donor • Test A: 24-hour MSM pretreatment w/thorough washing, no MSM enhancer • Test B: 24-hour MSM pretreatment w/brief rinsing, no MSM enhancer • MSM-enhanced: No MSM in 24-hour pre-treatment, w/MSM enhancer

[5] = Intestinal membrane permeation, MSM as enhancer, methylene blue as active (Example 8); format: in vitro ADME, porcine
Description: In this experiment we selected methylene blue as the species for which permeation enhancement was desired. As tissue model for this experiment we selected porcine intestinal membrane. A small glass vial was filled with test solution and capped with the test membrane (tissue layer of defined thickness). The membrane tissue was hold in place with a rubber O-ring and a screw cap of defined surface area opening. This test unit was immersed into a large glass vial filled with receptor medium. From this large glass vial, small sample receptor medium volumes were periodically removed for analysis.

[6] = 30-minute time point; 8 μl eye drop on rat cornea; MSM versus PBS

- solubility ([1]; MSM concentration 250 mg/mL): 45 mg/100 mL
- solubility change ([1]; MSM concentration of 30 mg/mL): not significantly increased
- solubility ([1]; MSM solution, aqueous with cosolvent or surfactant or cyclodextrin, MSM 30 mg/ml, read-out: Solubility of Dexamethasone): 160 µg/mL (≈ 408 µM)
- solubility ([1]; MSM solution, aqueous with cosolvent or surfactant or cyclodextrin, MSM 50 mg/ml, read-out: Solubility of Dexamethasone): 175 µg/mL (≈ 446 µM)
- solubility ([1]; MSM solution, aqueous with cosolvent or surfactant or cyclodextrin, MSM 100 mg/ml, read-out: Solubility of Dexamethasone): 190 µg/mL (≈ 484 µM)
- solubility ([1]; MSM solution, aqueous with cosolvent or surfactant or cyclodextrin, MSM 150 mg/ml, read-out: Solubility of Dexamethasone): 270 µg/mL (≈ 688 µM)
- solubility ([1]; MSM solution, aqueous with cosolvent or surfactant or cyclodextrin, MSM 200 mg/ml, read-out: Solubility of Dexamethasone): 340 µg/mL (≈ 866 µM)
- solubility ([1]; MSM solution, aqueous with cosolvent or surfactant or cyclodextrin, MSM 250 mg/ml, read-out: Solubility of Dexamethasone): 450 µg/mL (≈ 1150 µM)
- water solubility ([1]; room temperature, no MSM): 10 mg/100 mL
- increase on the diffusion rate ([2]; 27 mg MSM/ml): 25%
- permeation increase over control ([2]; 200 mg MSM/mL): approximately 50%
Compound: C[C@@H]1C[C@H]2[C@@H]3CCC4=CC(=O)C=C[C@]4(C)[C@@]3(F)[C@@H](O)C[C@]2(C)[C@@]1(O)C(=O)CO [dexamethasone]

- enhancement factor of cumulative permeation when MSM is present in the donor solution ([3]; MSM 27 mg/mL versus control): > 3
- lag time ([3]; MSM present in the donor solution): less than 12 hours
- Absorbance @ 668 nm of receptor medium (methylene blue permeation) ([3]; Time 43.5 Hr, Control: no MSM): 0.024
- Absorbance @ 668 nm of receptor medium (methylene blue permeation) ([3]; Time 43.5 Hr, MSM 27 mg/mL in donor): 0.093
- Absorbance @ 668 nm of receptor medium (methylene blue permeation) ([3]; Time 52.75 Hr, Control: no MSM): 0.03
- Absorbance @ 668 nm of receptor medium (methylene blue permeation) ([3]; Time 52.75 Hr, MSM 27 mg/mL in donor): 0.13
- Absorbance @ 668 nm of receptor medium (methylene blue permeation) ([3]; Time 65 Hr, Control: no MSM): 0.035
- Absorbance @ 668 nm of receptor medium (methylene blue permeation) ([3]; Time 65 Hr, MSM 27 mg/mL in donor): 0.163
- Absorbance @ 668 nm of receptor medium (methylene blue permeation) ([3]; Time 75.5 Hr, Control: no MSM): 0.042
- Absorbance @ 668 nm of receptor medium (methylene blue permeation) ([3]; Time 75.5 Hr, MSM 27 mg/mL in donor): 0.195
- Absorbance @ 668 nm of receptor medium (methylene blue permeation) ([3]; Time 89 Hr, Control: no MSM): 0.057
- Absorbance @ 668 nm of receptor medium (methylene blue permeation) ([3]; Time 89 Hr, MSM 27 mg/mL in donor): 0.213
- Absorbance @ 668 nm of receptor medium (methylene blue permeation) ([3]; Time 97.5 Hr, Control: no MSM): 0.076
- Absorbance @ 668 nm of receptor medium (methylene blue permeation) ([3]; Time 97.5 Hr, MSM 27 mg/mL in donor): 0.265
- lag time ([3]; without MSM): about 24 hours
- permeation rate of enhanced solution relative to control ([4]; MSM 50 mg/mL in donor): approximately 2 times
- permeation through MSM-pretreated membrane versus control ([4]; MSM pretreatment, brief rinsing, no MSM in donor): slightly higher
- Absorbance @ 668 nm of receptor medium (methylene blue permeation) ([4]; Time 0.27, Control: no MSM pre-treatment, no MSM enhancer): 0.01
- Absorbance @ 668 nm of receptor medium (methylene blue permeation) ([4]; Time 0.27, Test A: MSM pretreatment w/thorough washing, no MSM enhancer): 0.01
- Absorbance @ 668 nm of receptor medium (methylene blue permeation) ([4]; Time 0.27, Test B: MSM pretreatment w/brief rinsing, no MSM enhancer): 0.019
- Absorbance @ 668 nm of receptor medium (methylene blue permeation) ([4]; Time 0.50, Control: no MSM pre-treatment, no MSM enhancer): 0.025
- Absorbance @ 668 nm of receptor medium (methylene blue permeation) ([4]; Time 0.50, MSM-enhanced: no pre-treatment, MSM 50 mg/mL in donor): 0.06
- Absorbance @ 668 nm of receptor medium (methylene blue permeation) ([4]; Time 0.50, Test A: MSM pretreatment w/thorough washing, no MSM enhancer): 0.031
- Absorbance @ 668 nm of receptor medium (methylene blue permeation) ([4]; Time 0.50, Test B: MSM pretreatment w/brief rinsing, no MSM enhancer): 0.041
- Absorbance @ 668 nm of receptor medium (methylene blue permeation) ([4]; Time 0.75, Control: no MSM pre-treatment, no MSM enhancer): 0.037
- Absorbance @ 668 nm of receptor medium (methylene blue permeation) ([4]; Time 0.75, Test A: MSM pretreatment w/thorough washing, no MSM enhancer): 0.043
- Absorbance @ 668 nm of receptor medium (methylene blue permeation) ([4]; Time 0.75, Test B: MSM pretreatment w/brief rinsing, no MSM enhancer): 0.055
- Absorbance @ 668 nm of receptor medium (methylene blue permeation) ([4]; Time 1.00, Control: no MSM pre-treatment, no MSM enhancer): 0.052
- Absorbance @ 668 nm of receptor medium (methylene blue permeation) ([4]; Time 1.00, MSM-enhanced: no pre-treatment, MSM 50 mg/mL in donor): 0.13
- Absorbance @ 668 nm of receptor medium (methylene blue permeation) ([4]; Time 1.00, Test A: MSM pretreatment w/thorough washing, no MSM enhancer): 0.064
- Absorbance @ 668 nm of receptor medium (methylene blue permeation) ([4]; Time 1.00, Test B: MSM pretreatment w/brief rinsing, no MSM enhancer): 0.079
- Absorbance @ 668 nm of receptor medium (methylene blue permeation) ([4]; Time 1.50, Control: no MSM pre-treatment, no MSM enhancer): 0.078
- Absorbance @ 668 nm of receptor medium (methylene blue permeation) ([4]; Time 1.50, MSM-enhanced: no pre-treatment, MSM 50 mg/mL in donor): 0.204
- Absorbance @ 668 nm of receptor medium (methylene blue permeation) ([4]; Time 1.50, Test A: MSM pretreatment w/thorough washing, no MSM enhancer): 0.089
- Absorbance @ 668 nm of receptor medium (methylene blue permeation) ([4]; Time 1.50, Test B: MSM pretreatment w/brief rinsing, no MSM enhancer): 0.118
- Absorbance @ 668 nm of receptor medium (methylene blue permeation) ([4]; Time 2.00, Control: no MSM pre-treatment, no MSM enhancer): 0.114
- Absorbance @ 668 nm of receptor medium (methylene blue permeation) ([4]; Time 2.00, MSM-enhanced: no pre-treatment, MSM 50 mg/mL in donor): 0.281
- Absorbance @ 668 nm of receptor medium (methylene blue permeation) ([4]; Time 2.00, Test A: MSM pretreatment w/thorough washing, no MSM enhancer): 0.125
- Absorbance @ 668 nm of receptor medium (methylene blue permeation) ([4]; Time 2.00, Test B: MSM pretreatment w/brief rinsing, no MSM enhancer): 0.16
- Absorbance @ 668 nm of receptor medium (methylene blue permeation) ([4]; Time 24.00, Control: no MSM pre-treatment, no MSM enhancer): 0.92
- Absorbance @ 668 nm of receptor medium (methylene blue permeation) ([4]; Time 24.00, MSM-enhanced: no pre-treatment, MSM 50 mg/mL in donor): 1.393
- Absorbance @ 668 nm of receptor medium (methylene blue permeation) ([4]; Time 24.00, Test A: MSM pretreatment w/thorough washing, no MSM enhancer): 0.939
- Absorbance @ 668 nm of receptor medium (methylene blue permeation) ([4]; Time 24.00, Test B: MSM pretreatment w/brief rinsing, no MSM enhancer): 1.112
- enhancement factor of cumulative permeation when MSM is present in the donor solution ([5]; MSM 27 mg/mL versus control): ~2
- Absorbance at 668 nm of receptor medium (methylene blue permeation) ([5]; Time 0.55 Hr, Control: no MSM): 0.021
- Absorbance at 668 nm of receptor medium (methylene blue permeation) ([5]; Time 0.55 Hr, MSM 27 mg/mL in donor): 0.023
- Absorbance at 668 nm of receptor medium (methylene blue permeation) ([5]; Time 1.9 Hr, Control: no MSM): 0.061
- Absorbance at 668 nm of receptor medium (methylene blue permeation) ([5]; Time 1.9 Hr, MSM 27 mg/mL in donor): 0.176
- Absorbance at 668 nm of receptor medium (methylene blue permeation) ([5]; Time 2.9 Hr, Control: no MSM): 0.162
- Absorbance at 668 nm of receptor medium (methylene blue permeation) ([5]; Time 2.9 Hr, MSM 27 mg/mL in donor): 0.323
- Absorbance at 668 nm of receptor medium (methylene blue permeation) ([5]; Time 4 Hr, Control: no MSM): 0.234
- Absorbance at 668 nm of receptor medium (methylene blue permeation) ([5]; Time 4 Hr, MSM 27 mg/mL in donor): 0.433
- Absorbance at 668 nm of receptor medium (methylene blue permeation) ([5]; Time 5.7 Hr, Control: no MSM): 0.283
- Absorbance at 668 nm of receptor medium (methylene blue permeation) ([5]; Time 5.7 Hr, MSM 27 mg/mL in donor): 0.563
- Absorbance at 668 nm of receptor medium (methylene blue permeation) ([5]; Time 6.9 Hr, Control: no MSM): 0.408
- Absorbance at 668 nm of receptor medium (methylene blue permeation) ([5]; Time 6.9 Hr, MSM 27 mg/mL in donor): 0.738
Compound: CN(C)c1ccc2nc3ccc(=[N+](C)C)cc-3sc2c1 [methylene blue]
- remaining enhancement after thorough washing of MSM-pretreated membrane ([4]; MSM pretreatment, thorough washing, no MSM in donor): no detectable remaining enhancement effect

- increase in amount in the aqueous humor in the presence of MSM [6]: approximately 5 fold
Compound: O=C([O-])CN(CC(=O)[O-])[14CH2][14CH2]N(CC(=O)[O-])CC(=O)[O-].[Na+].[Na+].[Na+].[Na+] [^14C-EDTA, Ethylenediamine tetraacetic acid-1,2-^14C tetrasodium]
